From patent US11053204B2, “Pyrimidinyloxy benzene derivatives as herbicides” (FMC Corporation, priority 2015, dated 2021)

How the values were obtained:
Experiment in all cases: Test C postemergence, plant response rating
Type in all cases: in vivo
[1] = system: blackgrass (Alopecurus myosuroides); settings: for Plant response rating, Blackgrass: scale 0 to 100; for Blackgrass plant response rating: scale 0 to 100 (0 no effect, 100 complete control)
How it was run: (§1)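 Visual injury score, 0 = no effect, 100 = complete control, assigned against untreated controls after 13 to 15 d in the greenhouse. Compounds were applied in a surfactant-containing non-phytotoxic solvent mix, preemergence to seeded loam/sand or silt loam soil, or postemergence to 1- to 4-leaf plants (2 to 18 cm).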

[2] = system: corn (Zea mays); settings: for Plant response rating, Corn: scale 0 to 100; for Corn plant response rating: scale 0 to 100 (0 no effect, 100 complete control)
How it was run: as §1

[3] = system: crabgrass, large (large crabgrass, Digitaria sanguinalis); settings: for Plant response rating, Crabgrass, Large: scale 0 to 100; for Crabgrass, Large plant response rating: scale 0 to 100 (0 no effect, 100 complete control)
How it was run: as §1

[4] = system: galium (catchweed bedstraw, Galium aparine); settings: for Plant response rating, Galium: scale 0 to 100; for Galium plant response rating: scale 0 to 100 (0 no effect, 100 complete control)
How it was run: as §1

[5] = system: kochia (Kochia scoparia); settings: for Plant response rating, Kochia: scale 0 to 100; for Kochia plant response rating: scale 0 to 100 (0 no effect, 100 complete control)
How it was run: as §1

[6] = system: lambsquarters (Chenopodium album); settings: for Plant response rating, Lambsquarters: scale 0 to 100; for Lambsquarters plant response rating: scale 0 to 100 (0 no effect, 100 complete control)
How it was run: as §1

[7] = system: nutsedge, yellow (yellow nutsedge, Cyperus esculentus); settings: for Plant response rating, Nutsedge, Yellow: scale 0 to 100; for Nutsedge, Yellow plant response rating: scale 0 to 100 (0 no effect, 100 complete control)
How it was run: as §1

[8] = system: oat, wild (wild oat Avena fatua); settings: for Plant response rating, Oat, Wild: scale 0 to 100; for Oat, Wild plant response rating: scale 0 to 100 (0 no effect, 100 complete control)
How it was run: as §1

[9] = system: oilseed rape (Brassica napus); settings: for Plant response rating, Oilseed Rape: scale 0 to 100; for Oilseed Rape plant response rating: scale 0 to 100 (0 no effect, 100 complete control)
How it was run: as §1

[10] = system: ragweed (common ragweed, Ambrosia elatior); settings: for Plant response rating, Ragweed: scale 0 to 100; for Ragweed plant response rating: scale 0 to 100 (0 no effect, 100 complete control)
How it was run: as §1

[11] = system: ryegrass, Italian (Italian ryegrass, Lolium multiflorum); settings: for Plant response rating, Ryegrass, Italian: scale 0 to 100; for Ryegrass, Italian plant response rating: scale 0 to 100 (0 no effect, 100 complete control)
How it was run: as §1

[12] = system: soybean (Glycine max); settings: for Plant response rating, Soybean: scale 0 to 100; for Soybean plant response rating: scale 0 to 100 (0 no effect, 100 complete control)
How it was run: as §1

[13] = system: velvetleaf (Abutilon theophrasti); settings: for Plant response rating, Velvetleaf: scale 0 to 100; for Velvetleaf plant response rating: scale 0 to 100 (0 no effect, 100 complete control)
How it was run: as §1

[14] = system: waterhemp (common waterhemp, Amaranthus rudis); settings: for Plant response rating, Waterhemp: scale 0 to 100; for Waterhemp plant response rating: scale 0 to 100 (0 no effect, 100 complete control)
How it was run: as §1

[15] = system: wheat (winter wheat, Triticum aestivum); settings: for Plant response rating, Wheat: scale 0 to 100; for Wheat plant response rating: scale 0 to 100 (0 no effect, 100 complete control)
How it was run: as §1

CCCC(=O)c1c(Br)cccc1Oc1ncc(Cl)cn1 [Compound 75]
Plant response rating, Blackgrass ([1]; 16 g ai/ha): 0 | Plant response rating, Blackgrass ([1]; 31 g ai/ha): 5 | Blackgrass plant response rating ([1]; 62 g ai/ha): 10 | Blackgrass plant response rating ([1]; 125 g ai/ha): 30 | Plant response rating, Corn ([2]; 16 g ai/ha): 10 | Plant response rating, Corn ([2]; 31 g ai/ha): 15 | Corn plant response rating ([2]; 62 g ai/ha): 15 | Corn plant response rating ([2]; 125 g ai/ha): 20 | Plant response rating, Crabgrass, Large ([3]; 16 g ai/ha): 10 | Plant response rating, Crabgrass, Large ([3]; 31 g ai/ha): 10 | Crabgrass, Large plant response rating ([3]; 62 g ai/ha): 15 | Crabgrass, Large plant response rating ([3]; 125 g ai/ha): 25 | Plant response rating, Galium ([4]; 16 g ai/ha): 40 | Plant response rating, Galium ([4]; 31 g ai/ha): 70 | Galium plant response rating ([4]; 62 g ai/ha): 70 | Galium plant response rating ([4]; 125 g ai/ha): 80 | Plant response rating, Kochia ([5]; 16 g ai/ha): 75 | Plant response rating, Kochia ([5]; 31 g ai/ha): 85 | Kochia plant response rating ([5]; 62 g ai/ha): 90 | Kochia plant response rating ([5]; 125 g ai/ha): 98 | Plant response rating, Lambsquarters ([6]; 16 g ai/ha): 50 | Plant response rating, Lambsquarters ([6]; 31 g ai/ha): 55 | Lambsquarters plant response rating ([6]; 62 g ai/ha): 70 | Lambsquarters plant response rating ([6]; 125 g ai/ha): 90 | Plant response rating, Nutsedge, Yellow ([7]; 16 g ai/ha): 0 | Plant response rating, Nutsedge, Yellow ([7]; 31 g ai/ha): 0 | Nutsedge, Yellow plant response rating ([7]; 62 g ai/ha): 0 | Nutsedge, Yellow plant response rating ([7]; 125 g ai/ha): 5 | Plant response rating, Oat, Wild ([8]; 16 g ai/ha): 5 | Plant response rating, Oat, Wild ([8]; 31 g ai/ha): 35 | Oat, Wild plant response rating ([8]; 62 g ai/ha): 40 | Oat, Wild plant response rating ([8]; 125 g ai/ha): 35 | Plant response rating, Oilseed Rape ([9]; 16 g ai/ha): 60 | Plant response rating, Oilseed Rape ([9]; 31 g ai/ha): 80 | Oilseed Rape plant response rating ([9]; 62 g ai/ha): 80 | Oilseed Rape plant response rating ([9]; 125 g ai/ha): 95 | Plant response rating, Ragweed ([10]; 16 g ai/ha): 5 | Plant response rating, Ragweed ([10]; 31 g ai/ha): 10 | Ragweed plant response rating ([10]; 62 g ai/ha): 50 | Ragweed plant response rating ([10]; 125 g ai/ha): 60 | Plant response rating, Ryegrass, Italian ([11]; 16 g ai/ha): 0 | Plant response rating, Ryegrass, Italian ([11]; 31 g ai/ha): 10 | Ryegrass, Italian plant response rating ([11]; 62 g ai/ha): 10 | Ryegrass, Italian plant response rating ([11]; 125 g ai/ha): 5 | Plant response rating, Soybean ([12]; 16 g ai/ha): 50 | Plant response rating, Soybean ([12]; 31 g ai/ha): 65 | Soybean plant response rating ([12]; 62 g ai/ha): 85 | Soybean plant response rating ([12]; 125 g ai/ha): 85 | Plant response rating, Velvetleaf ([13]; 16 g ai/ha): 30 | Plant response rating, Velvetleaf ([13]; 31 g ai/ha): 35 | Velvetleaf plant response rating ([13]; 62 g ai/ha): 70 | Velvetleaf plant response rating ([13]; 125 g ai/ha): 75 | Plant response rating, Waterhemp ([14]; 16 g ai/ha): 85 | Plant response rating, Waterhemp ([14]; 31 g ai/ha): 90 | Waterhemp plant response rating ([14]; 62 g ai/ha): 90 | Waterhemp plant response rating ([14]; 125 g ai/ha): 95 | Plant response rating, Wheat ([15]; 16 g ai/ha): 0 | Plant response rating, Wheat ([15]; 31 g ai/ha): 5 | Wheat plant response rating ([15]; 62 g ai/ha): 0 | Wheat plant response rating ([15]; 125 g ai/ha): 10
